In ChEMBL document CHEMBL3769368, “Semi-synthesis and anti-tumor evaluation of novel 25-hydroxyprotopanaxadiol derivatives as apoptosis inducing agents” (Medchemcomm, 2015):

How the values were obtained:
[1] = Antiproliferative activity against human DU145 cells after 48 hrs by MTT assay; assay type: functional, cell-based; details: DU-145, 48 h
[2] = Antiproliferative activity against human PC3 cells after 48 hrs by MTT assay; assay type: functional, cell-based; details: PC-3, 48 h
MDA-MB-231 = experiment: Antiproliferative activity against human MDA-MB-231 cells after 48 hrs by MTT assay; assay type: functional, cell-based; details: MDA-MB-231, 48 h
[3] = Antiproliferative activity against human BGC823 cells after 48 hrs by MTT assay; assay type: functional, cell-based; details: BGC-823, 48 h
[4] = Antiproliferative activity against human alpha-2 cells after 48 hrs by MTT assay; assay type: functional, cell-based
[5] = Cytotoxicity against human IOSE-144 cells after 48 hrs by MTT assay; assay type: cell-based; details: IOSE-144, 48 h

SMILES	IC50 [1] [µM]	IC50 [2] [µM]	IC50 (MDA-MB-231) [µM]	IC50 [3] [µM]	IC50 [4] [µM]	IC50 [5] [µM]
CC(C)(O)CCC[C@@](C)(O)[C@H]1CC[C@]2(C)[C@@H]1[C@H](OC(=O)[C@H](Cc1ccc(O)cc1)NC(=O)OC(C)(C)C)C[C@@H]1[C@@]3(C)CC[C@H](O)C(C)(C)[C@@H]3CC[C@]12C	> 100	63	29	90	84	> 100
CC(C)(O)CCC[C@@](C)(O)[C@H]1CC[C@]2(C)[C@@H]1[C@H](O)C[C@@H]1[C@@]3(C)CC[C@H](OC(=O)[C@H](CCCNC(=N)N)NC(=O)OC(C)(C)C)C(C)(C)[C@@H]3CC[C@]12C	11	12	8	12	13	> 100
CC(C)(O)CCC[C@@](C)(O)[C@H]1CC[C@]2(C)[C@@H]1[C@H](O)C[C@@H]1[C@@]3(C)CC[C@H](OC(=O)[C@H](CCC(=O)OCc4ccccc4)NC(=O)OC(C)(C)C)C(C)(C)[C@@H]3CC[C@]12C	54	29	19	23	28	> 100
C[C@H](NC(=O)OC(C)(C)C)C(=O)O[C@H]1CC[C@]2(C)[C@H]3C[C@@H](OC(=O)[C@H](C)NC(=O)OC(C)(C)C)[C@@H]4[C@@H]([C@](C)(O)CCCC(C)(C)O)CC[C@@]4(C)[C@]3(C)CC[C@H]2C1(C)C	> 100	> 100	80	81	57	> 100
C[C@H](N)C(=O)O[C@@H]1C[C@@H]2[C@@]3(C)CC[C@H](O)C(C)(C)[C@@H]3CC[C@@]2(C)[C@]2(C)CC[C@H]([C@](C)(O)CCCC(C)(C)O)[C@@H]12	14	8.8	5.7	9	9.2	> 100
CC(C)C[C@H](N)C(=O)O[C@H]1CC[C@]2(C)[C@H]3C[C@@H](O)[C@@H]4[C@@H]([C@](C)(O)CCCC(C)(C)O)CC[C@@]4(C)[C@]3(C)CC[C@H]2C1(C)C	7.6	7.9	4.8	8.9	16	> 100
CC(C)(O)CCC[C@@](C)(O)[C@H]1CC[C@]2(C)[C@@H]1[C@H](OC(=O)[C@H](Cc1cnc[nH]1)NC(=O)OC(C)(C)C)C[C@@H]1[C@@]3(C)CC[C@H](O)C(C)(C)[C@@H]3CC[C@]12C	> 100	86	23	38	72	> 100
CC(C)(O)CCC[C@@](C)(O)[C@H]1CC[C@]2(C)[C@@H]1[C@H](O)C[C@@H]1[C@@]3(C)CC[C@H](OC(=O)[C@H](CO)NC(=O)OC(C)(C)C)C(C)(C)[C@@H]3CC[C@]12C	25	25	18	21	24	> 100
CC[C@H](C)[C@H](NC(=O)OC(C)(C)C)C(=O)O[C@H]1CC[C@]2(C)[C@H]3C[C@@H](O)[C@@H]4[C@@H]([C@](C)(O)CCCC(C)(C)O)CC[C@@]4(C)[C@]3(C)CC[C@H]2C1(C)C	58	24	18	22	36	> 100
CC(C)(O)CCC[C@@](C)(O)[C@H]1CC[C@]2(C)[C@@H]1[C@H](OC(=O)[C@H](CCC(=O)OCc1ccccc1)NC(=O)OC(C)(C)C)C[C@@H]1[C@@]3(C)CC[C@H](O)C(C)(C)[C@@H]3CC[C@]12C	> 100	> 100	79	> 100	85	> 100
CC(C)C[C@H](NC(=O)OC(C)(C)C)C(=O)O[C@@H]1C[C@@H]2[C@@]3(C)CC[C@H](O)C(C)(C)[C@@H]3CC[C@@]2(C)[C@]2(C)CC[C@H]([C@](C)(O)CCCC(C)(C)O)[C@@H]12	> 100	> 100	> 100	> 100	86	> 100
C[C@@H](O)[C@H](N)C(=O)O[C@H]1CC[C@]2(C)[C@H]3C[C@@H](O)[C@@H]4[C@@H]([C@](C)(O)CCCC(C)(C)O)CC[C@@]4(C)[C@]3(C)CC[C@H]2C1(C)C	8.7	8.9	5.4	11	12	> 100
CC(C)(O)CCC[C@@](C)(O)[C@H]1CC[C@]2(C)[C@@H]1[C@H](O)C[C@@H]1[C@@]3(C)CC[C@H](O)C(C)(C)[C@@H]3CC[C@]12C	53	57	33	46	48	> 100
CC(C)(O)CCC[C@@](C)(O)[C@H]1CC[C@]2(C)[C@@H]1[C@H](OC(=O)[C@H](CCC(=O)OCc1ccccc1)NC(=O)OC(C)(C)C)C[C@@H]1[C@@]3(C)CC[C@H](OC(=O)[C@H](CCC(=O)OCc4ccccc4)NC(=O)OC(C)(C)C)C(C)(C)[C@@H]3CC[C@]12C	> 100	> 100	89	> 100	61	> 100
CC(C)(O)CCC[C@@](C)(O)[C@H]1CC[C@]2(C)[C@@H]1[C@H](O)C[C@@H]1[C@@]3(C)CC[C@H](OC(=O)[C@H](Cc4cnc[nH]4)NC(=O)OC(C)(C)C)C(C)(C)[C@@H]3CC[C@]12C	21	28	17	27	20	> 100
C[C@H](NC(=O)OC(C)(C)C)C(=O)O[C@@H]1C[C@@H]2[C@@]3(C)CC[C@H](O)C(C)(C)[C@@H]3CC[C@@]2(C)[C@]2(C)CC[C@H]([C@](C)(O)CCCC(C)(C)O)[C@@H]12	> 100	49	46	40	34	> 100
C[C@@H](O)[C@H](NC(=O)OC(C)(C)C)C(=O)O[C@H]1CC[C@]2(C)[C@H]3C[C@@H](O)[C@@H]4[C@@H]([C@](C)(O)CCCC(C)(C)O)CC[C@@]4(C)[C@]3(C)CC[C@H]2C1(C)C	25	28	14	22	24	> 100
O=c1[nH]cc(F)c(=O)[nH]1 [FLUOROURACIL]	38	46	20	37	33	29
CC(C)C[C@H](NC(=O)OC(C)(C)C)C(=O)O[C@H]1CC[C@]2(C)[C@H]3C[C@@H](OC(=O)[C@H](CC(C)C)NC(=O)OC(C)(C)C)[C@@H]4[C@@H]([C@](C)(O)CCCC(C)(C)O)CC[C@@]4(C)[C@]3(C)CC[C@H]2C1(C)C	> 100	> 100	> 100	> 100	73	> 100
CC[C@H](C)[C@H](NC(=O)OC(C)(C)C)C(=O)O[C@H]1CC[C@]2(C)[C@H]3C[C@@H](OC(=O)[C@@H](NC(=O)OC(C)(C)C)[C@@H](C)CC)[C@@H]4[C@@H]([C@](C)(O)CCCC(C)(C)O)CC[C@@]4(C)[C@]3(C)CC[C@H]2C1(C)C	> 100	> 100	> 100	> 100	69	> 100
C[C@H](NC(=O)OC(C)(C)C)C(=O)O[C@H]1CC[C@]2(C)[C@H]3C[C@@H](O)[C@@H]4[C@@H]([C@](C)(O)CCCC(C)(C)O)CC[C@@]4(C)[C@]3(C)CC[C@H]2C1(C)C	23	22	17	18	24	> 100
CC(C)(O)CCC[C@@](C)(O)[C@H]1CC[C@]2(C)[C@@H]1[C@H](O)C[C@@H]1[C@@]3(C)CC[C@H](OC(=O)[C@H](Cc4ccc(O)cc4)NC(=O)OC(C)(C)C)C(C)(C)[C@@H]3CC[C@]12C	34	25	19	37	33	> 100
CC(C)(O)CCC[C@@](C)(O)[C@H]1CC[C@]2(C)[C@@H]1[C@H](O)C[C@@H]1[C@@]3(C)CC[C@H](OC(=O)[C@@H](N)Cc4cnc[nH]4)C(C)(C)[C@@H]3CC[C@]12C	9.6	10	5.3	12	11	> 100
CC(C)C[C@H](NC(=O)OC(C)(C)C)C(=O)O[C@H]1CC[C@]2(C)[C@H]3C[C@@H](O)[C@@H]4[C@@H]([C@](C)(O)CCCC(C)(C)O)CC[C@@]4(C)[C@]3(C)CC[C@H]2C1(C)C	26	41	17	24	32	> 100
CC[C@H](C)[C@H](NC(=O)OC(C)(C)C)C(=O)O[C@@H]1C[C@@H]2[C@@]3(C)CC[C@H](O)C(C)(C)[C@@H]3CC[C@@]2(C)[C@]2(C)CC[C@H]([C@](C)(O)CCCC(C)(C)O)[C@@H]12	> 100	> 100	> 100	> 100	81	> 100
C[C@H](N)C(=O)O[C@H]1CC[C@]2(C)[C@H]3C[C@@H](O)[C@@H]4[C@@H]([C@](C)(O)CCCC(C)(C)O)CC[C@@]4(C)[C@]3(C)CC[C@H]2C1(C)C	8	7.6	4.8	7.9	11	> 100
